Measurements reported in PubChem BioAssay (NCI).
Values joined by “and” are separate entries in the source; they are usually repeats but may differ in a detail not shown here. Identical values can stand only once.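 Following 48 hours of exposure in 96-well plates, responses at five concentrations were used to interpolate endpoints linearly. GI50: concentration for 50% inhibition of growth. TGI denotes the concentration required for complete inhibition of growth.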

What was measured:
Assay in all cases: NCI tumour cell line growth inhibition, 48 h
DLD-1 colon = tested on: DLD-1 colon
DMS 114 small cell lung = tested on: DMS 114 small cell lung
HOP-18 NSCLC = tested on: HOP-18 NSCLC
KM20L2 colon = tested on: KM20L2 colon
M19-MEL melanoma = tested on: M19-MEL melanoma
RXF-631 renal = tested on: RXF-631 renal
SNB-78 CNS = tested on: SNB-78 CNS
XF 498 CNS = tested on: XF 498 CNS
MDA-N = tested on: MDA-N
P388 leukemia = tested on: P388 leukemia
P388/ADR leukemia = tested on: P388/ADR leukemia
SN12K1 renal = tested on: SN12K1 renal

| Structure (SMILES) | TGI (DLD-1 colon) | TGI (DMS 114 small cell lung) | TGI (HOP-18 NSCLC) | TGI (KM20L2 colon) | TGI (M19-MEL melanoma) | TGI (RXF-631 renal) | TGI (SNB-78 CNS) | TGI (XF 498 CNS) | other results |
| --- | --- | --- | --- | --- | --- | --- | --- | --- | --- |
| CCOC(=O)C1C(NC(N)=O)N(Cc2ccccc2)C(=O)N1Cc1ccccc1 (stereo not given) | > 100 µM | > 100 µM | > 100 µM | > 100 µM | > 100 µM | > 100 µM | 29.2 µM | > 100 µM | – |
| C=C(C)c1nc(Oc2ccccc2)nc(Oc2ccccc2)n1 | 6.62 µM | 8.79 µM | 30.2 µM | 26.7 µM | 7.93 µM | 13.5 µM | 26.8 µM | 13 µM | TGI (MDA-N): 14.8 µM; TGI (P388 leukemia): 3.63 µM; TGI (P388/ADR leukemia): 2.7 µM; TGI (SN12K1 renal): 8.88 µM |
| N#CC1(CCCCl)CCCCC1 | > 100 µM | > 100 µM | > 100 µM | > 100 µM | > 100 µM | > 100 µM | > 100 µM | > 100 µM | – |
| Cc1ccccc1NC(=O)CC(=O)NNCC(=O)Nc1nnc(-c2ccccc2)s1 | > 100 µM | > 100 µM | 96.2 µM | > 100 µM | > 100 µM | > 100 µM | > 100 µM | > 100 µM | – |
| Cc1ccccc1NC(=O)C1C(=O)N(c2ccccc2C)C(=O)/C1=N\NC(N)=O (stereo not given) | > 100 µM | > 100 µM | > 100 µM | > 100 µM | > 100 µM | – | > 100 µM | – | – |
| CC(C)(C)C1CC[C@H]2c3c([nH]c4ccccc34)[C@H]3C(=O)N(c4ccc(F)cc4)C(=O)[C@H]3[C@H]2C1 (stereo not given in full) | 37.4 µM | 38 µM | 34.4 µM | 46.5 µM | 34.7 µM | – | 36.8 µM | 32.3 µM | – |
| O=[N+]([O-])c1ccc(/C=C/c2ccc(/C=C/c3ccc([N+](=O)[O-])cc3[N+](=O)[O-])cc2)c([N+](=O)[O-])c1 | > 100 µM | > 100 µM | – | > 100 µM | – | – | > 100 µM | > 100 µM | – |
| CCCCC(C(=O)C(=O)Nc1ccccc1CC)C(=O)C(C)C (stereo not given) | > 100 µM | > 100 µM | – | > 100 µM | > 100 µM | > 100 µM | > 100 µM | > 100 µM | – |
| CC1(C)CC2=NO[Se]3=C2C(=NO3)C1 | – | – | – | – | – | – | – | – | TGI (MDA-N): 4.22 µM |
| N=C(N)SCc1ccc(Cl)c2ccccc12 (tested in a mixture with another compound) | – | – | – | – | – | – | – | – | TGI (MDA-N): 23.4 µM and 24.8 µM |
| NS(=O)(=O)c1cc2c(cc1Cl)NCNS2(=O)=O | – | – | – | – | – | – | – | – | TGI (MDA-N): > 100 µM |
| C/C(=C\c1ccccc1)C(O)C(=O)c1nc2ccc(Cl)cc2[nH]c1=O (stereo not given) | > 100 µM | > 100 µM | – | > 100 µM | > 100 µM | – | > 100 µM | > 100 µM | – |
| COC(=O)C1CC(=O)O[C@H]1c1ccc(OC)c(OC)c1 (stereo not given in full) | > 100 µM | > 100 µM | > 100 µM | > 100 µM | > 100 µM | > 100 µM | > 100 µM | > 100 µM | – |
| CN(C)c1ccc(/C=c2/sc3nc(=O)c(-c4ccccc4NC(=O)C(F)(F)F)nn3c2=O)cc1 | > 100 µM | 57.2 µM | – | – | > 100 µM | – | > 100 µM | > 100 µM | – |
| CN(C)c1ccc(/C=C2\CCc3ccccc3C2=O)cc1Br | > 100 µM | – | > 100 µM | > 100 µM | > 100 µM | – | > 100 µM | > 100 µM | – |
| O/N=C1/C(=C/c2ccc(OCc3ccccc3)cc2)CCCC1C(NO)c1ccc(OCc2ccccc2)cc1 (stereo not given) | > 100 µM | – | > 100 µM | > 100 µM | > 100 µM | > 100 µM | – | – | – |
| O=C1NC(c2ccccc2Cl)Nc2ccccc21 (stereo not given) | – | – | – | – | – | – | – | – | TGI (MDA-N): 3.29 µM |

| Structure (SMILES) | TGI (DLD-1 colon) | TGI (DMS 114 small cell lung) | TGI (HOP-18 NSCLC) | TGI (KM20L2 colon) | TGI (M19-MEL melanoma) | TGI (RXF-631 renal) | TGI (SNB-78 CNS) | TGI (XF 498 CNS) | other results |
| --- | --- | --- | --- | --- | --- | --- | --- | --- | --- |
| O=C1c2ccccc2N1C(=O)c1ccccc1[N+](=O)[O-] | – | – | – | – | – | – | – | – | TGI (MDA-N): > 100 µM |
| CC1(C)CC(=O)C(C(=O)Nc2cccs2)=C(O)C1 | > 100 µM | – | > 100 µM | > 100 µM | > 100 µM | > 100 µM | > 100 µM | 82.7 µM | – |
| O=C1NC(=O)C2C3C=CC(C12)C1C2C(=O)NC(=O)C2C31 (stereo not given) | 250 µM | 233 µM | 98.8 µM and 250 µM | 250 µM | 250 µM | – | 250 µM | 244 µM | GI50 (DLD-1 colon): 39 µM; GI50 (DMS 114 small cell lung): > 60.5 µM; GI50 (HOP-18 NSCLC): > 63.3 µM; GI50 (M19-MEL melanoma): 98.2 µM; GI50 (MDA-N): 193 µM; TGI (MDA-N): 250 µM and > 1000 µM; TGI (P388 leukemia): 228 µM; TGI (P388/ADR leukemia): 250 µM; TGI (SN12K1 renal): 250 µM |
| N#Cc1c(CC(=O)O)cc(=O)n2c1[nH]c1ccccc12 | > 100 µM | > 100 µM | – | > 100 µM | > 100 µM | – | > 100 µM | – | – |
| COc1nc(N)nc2nc[nH]c12 | 500 µM and 800 µM | 500 µM and > 800 µM | 499 µM and 800 µM | > 800 µM | > 800 µM | 800 µM | 500 µM and 800 µM | 498 µM | GI50 (DLD-1 colon): 655 µM; GI50 (DMS 114 small cell lung): > 800 µM; GI50 (HOP-18 NSCLC): 641 µM; GI50 (KM20L2 colon): > 800 µM; GI50 (M19-MEL melanoma): > 800 µM; GI50 (MDA-N): 760 µM; TGI (MDA-N): > 1000 µM; TGI (P388 leukemia): 500 µM; TGI (P388/ADR leukemia): 500 µM; TGI (SN12K1 renal): 500 µM; GI50 (SNB-78 CNS): 684 µM |
| CCC12C=C(C(=O)OC)N3c4ccccc4C4CCN(CCC1)C2C43 (stereo not given) | > 100 µM | > 100 µM | > 100 µM | 56.7 µM | > 100 µM | – | > 100 µM | – | – |
| CNS(=O)(=O)NNS(=O)(=O)c1ccc(C)cc1 | > 100 µM | > 100 µM | – | > 100 µM | > 100 µM | – | – | – | – |
| CCCCCNC(=O)CCCCCCCCCCCNC(=O)CCCCCCCCCCN1C=CC(=CC=C2C=CC(=O)C=C2)C=C1 | > 100 µM | > 100 µM | – | > 100 µM | > 100 µM | > 100 µM | 96.9 µM | > 100 µM | – |
| O=C1c2ccccc2C2(O)N(c3ccccc3)C(=S)N(c3ccccc3)C12O (stereo not given) | > 100 µM | > 100 µM | > 100 µM | > 100 µM | > 100 µM | > 100 µM | > 100 µM | – | – |
| CC(=O)NC(CCCNC(=O)OCc1ccccc1)C(=O)NCc1ccccc1 (stereo not given) | > 100 µM | > 100 µM | – | > 100 µM | > 100 µM | – | – | > 100 µM | – |
| ON1CCc2c([nH]c3ccccc23)C1c1ccc(Cl)cc1 (stereo not given) | > 100 µM | > 100 µM | – | 77.5 µM | > 100 µM | – | > 100 µM | 57.6 µM | – |
| Nc1ccccc1C(=O)/C=C/c1ccccc1O | > 100 µM | > 100 µM | > 100 µM | > 100 µM | > 100 µM | > 100 µM | > 100 µM | > 100 µM | – |
| CC(C)(C)C1CCC(O)(c2ccccc2)CC1 (stereo not given) | > 100 µM and 75.5 µM | > 100 µM and 52.5 µM | > 100 µM | > 100 µM and 31.7 µM | > 100 µM and 41.6 µM | – | > 100 µM and 57 µM | 22.9 µM | – |
| CN1S(=O)(=O)N(C)P12(N=P(CP(=NP13(N(C)S(=O)(=O)N1C)N(C)S(=O)(=O)N3C)(c1ccccc1)c1ccccc1)(c1ccccc1)c1ccccc1)N(C)S(=O)(=O)N2C | > 100 µM | > 100 µM | > 100 µM | > 100 µM | > 100 µM | > 100 µM | > 100 µM | > 100 µM | – |
| CCOC(=O)C1(C)CCC(C(=O)OC)C1=O (stereo not given) | > 100 µM | 35.1 µM | > 100 µM | > 100 µM | > 100 µM | – | > 100 µM | > 100 µM | – |
| O=c1c2cc(Br)ccc2nc(CNc2ccccc2)n1-c1ccccc1 | 21.6 µM | 25.6 µM | > 53.3 µM | > 100 µM | 29.7 µM | – | 57.9 µM | 29.1 µM | – |
